Here are results for 67 compounds from the PolyMetriX glass transition set.

± gives the standard deviation of the reports.

In the case of `*/C=C(\C#N)C(=O)Nc1cc(-c2ccc(O)c(NC(=O)/C(C#N)=C/c3ccc(/C=C/c4ccc(N(c5ccccc5)c5ccc(N(c6ccccc6)c6ccc(/C=C/c7ccc(*)s7)cc6)cc5)cc4)s3)c2)ccc1O` (repeat unit), the glass transition temperature came to 221.00 °C.
Next, `*/C=C/C(C)C(*)C(=O)OC` (repeat unit): 53.00 °C; `*/C=C/C(C)C(*)C(=O)OCCCCCCN(C)c1ccc(N(C)C)cc1` (repeat unit): 2.00 °C; `*/C=C/C(C*)OC` (repeat unit): -10.50 °C.
`*/C=C/C1CC(*)C(C#N)(C[Si](C)(C)O[Si](C)(C)C)C1` (repeat unit) had a glass transition temperature of 68.00 °C.
The result for `*/C=C/C1CC(*)C(C#N)([Si](C)(C)O[Si](C)(C)C)C1` (repeat unit) reads 88.00 °C.
Next, `*/C=C/C1CC(*)C(C#N)([Si](C)(C)[Si](C)(C)C)C1` (repeat unit): 120.00 °C; `*/C=C/C1CC(*)C(C(=O)OC)C1` (repeat unit): 65.00 °C; `*/C=C/C1CC(*)C(C(=O)OCCNC(C)(C)C)C1` (repeat unit): 29.00 °C.
In turn, `*/C=C/C1CC(*)C(C(=O)Oc2ccccc2)C1` (repeat unit) had a glass transition temperature of 72.60 °C.
For the compound `*/C=C/C1CC(*)C(C2CC=CCC2)C1` (repeat unit), the glass transition temperature amounted to 105.00 °C.
In turn, `*/C=C/C1CC(*)C([Si](C)(C)C[Si](C)(C)C)C1` (repeat unit) registered a glass transition temperature of 24.00 °C.
Next, `*/C=C/C1CC(*)C2C(=O)N(CCC)C(=O)C12` (repeat unit): 139.00 °C.
Next, `*/C=C/C1CC(*)C2C(=O)N(CCCCCCC)C(=O)C12` (repeat unit): 59.00 °C; `*/C=C/C1CC(*)C2C(=O)N(CCCCCCCCCCCC)C(=O)C12` (repeat unit): 50.00 °C; `*/C=C/C1CC(*)C2C(=O)N(c3ccccc3C)C(=O)C12` (repeat unit): 248.00 °C.
The result for `*/C=C/C1CC(*)C2CC=CC12` (repeat unit) reads 53.00 °C; that for `*/C=C/c1cc(OCC(CC)CCCC)c(*)cc1-c1ccc(N(c2ccc(OC)cc2)c2ccc(OC)cc2)cc1` (repeat unit), 163.00 °C.
For the compound `*/C=C/c1cc(OCCCCCC)c(*)cc1OC` (repeat unit), the glass transition temperature came to 60.00 °C.
Next, `*/C=C/c1ccc(/C=C/[Si](C)(C)c2ccc([Si](*)(C)C)cc2)cc1` (repeat unit): 63.00 °C; `*/C=C/c1ccc(/C=C/[Si](C)(CCC(F)(F)F)c2cccc([Si](*)(C)CCC(F)(F)F)c2)cc1` (repeat unit): 23.40 °C.
The compound `*/C=C/c1sc(-c2ccc(-c3ccc(-c4ccc(-c5sc(/C=C/C6=CC(=C(C#N)C#N)C=C(*)O6)c(CCCCCC)c5CCCCCC)s4)s3)s2)c(CCCCCC)c1CCCCCC` (repeat unit) came in with a glass transition temperature of 134.00 °C.
The compound `*/C=C/c1sc(-c2ccc(-c3sc(/C=C/C4=CC(=C(C#N)C#N)C=C(*)O4)c(CCCCCC)c3CCCCCC)s2)c(CCCCCC)c1CCCCCC` (repeat unit) gave a glass transition temperature of 114.00 °C.
The result for `*C/C=C/C(C)S(*)(=O)=O` (repeat unit) reads 71.00 °C; that for `*CCCCCCCCOc1c(OC)cc(/C=C/c2cc(C(C)C)c(/C=C/c3cc(OC)c(O*)c(OC)c3)cc2C(C)C)cc1OC` (repeat unit), 85.00 °C; that for `*CCCCCCOc1c(OC)cc(/C=C2\CCC/C(=C\c3cc(OC)c(O*)c(OC)c3)C2=O)cc1OC` (repeat unit), 71.00 °C.
In the case of `*CCCCCCOc1ccc(/C=C2\CCC/C(=C\c3ccc(O*)c(OC)c3)C2=O)cc1OC` (repeat unit), the glass transition temperature was determined as 80.00 °C.
Compound `*CCCCOC(=O)/C=C/C(=O)O*` (repeat unit) registered a glass transition temperature of 93.00 °C.
In the case of `*CCN(CCOC(=O)/C=C/c1ccc(/C=C/C(=O)O*)cc1)c1ccc(/N=N/c2ccc([N+](=O)[O-])cc2)cc1` (repeat unit), the glass transition temperature came out at 120.00 °C.
Consider `*CCOCCOC(=O)/C=C/C(=O)O*` (repeat unit), for which the glass transition temperature was -8.20 °C.
As to `*CCOCCOCCOC(=O)/C=C/C(=O)NCCCCCCNC(=O)/C=C/C(=O)O*` (repeat unit), the glass transition temperature was 65.00 °C.
For the compound `*CCOCCOCCOCCOC(=O)/C=C/C(=O)NCCCCCCNC(=O)/C=C/C(=O)O*` (repeat unit), the glass transition temperature was found to be 52.00 °C.
Next, `*NNC(=O)/C=C/C(=O)Nc1cccc(/C=C2\CC/C(=C\c3cccc(NC(=O)/C=C/C(*)=O)c3)C2=O)c1` (repeat unit): 104.60 °C; `*Oc1ccc(-c2ccc(OC(=O)/C=C/c3ccc(/C=C/C(*)=O)cc3)cc2)cc1` (repeat unit): 243.00 °C.
Next, `*Oc1ccc(NC(=O)/C=C/C(=O)NNC(=O)/C=C/C(=O)Nc2ccc(OC(=O)/C=C/C(=O)NNC(=O)/C=C/C(*)=O)cc2)cc1` (repeat unit): 265.00 °C; `*c1ccc(/C=C(\c2ccc(OC)cc2)c2ccc(/C(=C/c3ccc(N(*)c4ccccc4)cc3)c3ccc(OC)cc3)cc2)cc1` (repeat unit): 197.00 °C.
`*c1ccc2c(c1)Sc1cc(-c3sc(/C=C/C4=CC(=C(C#N)C#N)C=C(/C=C/c5sc(*)c(CCCCCC)c5CCCCCC)O4)c(CCCCCC)c3CCCCCC)ccc1N2CCCCCC` (repeat unit): the glass transition temperature amounted to 130.00 °C.
For `*/C=C/CC*` (repeat unit) [1,4-polybutadiene], the glass transition temperature was -91.00 ± 5 °C.
Consider `*C(F)(F)C1(F)C(F)(F)C(*)(F)C(F)(F)C1(F)F` (repeat unit) [Perfluoropolymer 3], for which the glass transition temperature worked out at 117 ± 0.6 °C.
As to `*c1ccc(*)cc1` (repeat unit) [Poly(1,4-phenylene)], the glass transition temperature worked out at 278.18 ± 19 °C.
In the case of `*CC(*)(C)C(=O)OCC` (repeat unit) [Poly(1-(Diethylamino)ethyl methacrylate)], the glass transition temperature came to 20 ± 27 °C.
As for `*/C=C/CCC*` (repeat unit) [Poly(1-pentenylene)], the glass transition temperature was -100.08 ± 7 °C.
The result for `*CC(*)c1ccc(Cl)cc1Cl` (repeat unit) [Poly(2,4-dichloro styrene) ] reads 133 ± 2.6 °C; that for `*CC(*)c1ccc(C)cc1C` (repeat unit) [Poly(2,4-dimethyl styrene) ], 112 ± 0.6 °C; that for `*CC(*)c1ccccc1Cl` (repeat unit) [Poly(2-chlorostyrene)], 118.92 ± 2.1 °C.
Compound `*CC(*)(C)C(=O)OCCO` (repeat unit) [Poly(2-hydroxyethyl methacrylate)] came in with a glass transition temperature of 84.03 ± 10 °C.
Compound `*CC(*)(C)C(=O)OCC(C)O` (repeat unit) [Poly(2-hydroxypropyl methacrylate)] showed a glass transition temperature of 75.4 ± 1.9 °C.
The result for `*CC(*)(C)CC` (repeat unit) [Poly(2-methylbutene)] reads -11.58 ± 9.3 °C.
For `*CC(*)(C)C(=O)OCCc1ccccc1` (repeat unit) [Poly(2-phenylethyl methacrylate)], the glass transition temperature amounted to 37.42 ± 16 °C.
Take `*CC(*)c1ccc(C)c(C)c1` (repeat unit) [Poly(3,4-dimethyl styrene) ]: the glass transition temperature is 111 ± 2.4 °C.
The result for `*CC(*)c1ccc(F)cc1` (repeat unit) [Poly(4-fluorostyrene)] reads 104 ± 4.9 °C; that for `*CC(*)c1ccc(C(=O)c2ccc(C)cc2)cc1` (repeat unit) [Poly(4-p-toluoylstyrene)], 98.92 ± 0.1 °C.
Compound `*CC(*)C(=O)Nc1ccccc1` (repeat unit) [Poly(N-phenyl acrylamide)] gave a glass transition temperature of 155.92 ± 5.8 °C.
The result for `*CC(*)n1c2ccccc2c2ccccc21` (repeat unit) [Poly(N-vinyl carbazole)] reads 150 ± 44 °C; that for `*CC(*)C(N)=O` (repeat unit) [Poly(acrylamide)], 178.92 ± 20 °C; that for `*CC(*)C(=O)O` (repeat unit) [Poly(acrylic acid)], 105 ± 7.3 °C.
For `*CCCCOC(=O)c1ccc(C(=O)O*)cc1` (repeat unit) [Poly(butylene terephthalate)], the glass transition temperature is 44.12 ± 6 °C.
In turn, `*CC(*)C(=O)OC1CCCCC1` (repeat unit) [Poly(cyclohexyl acrylate)] registered a glass transition temperature of 20.42 ± 6.5 °C.
As for `*CCCCCCCCCC(=O)N*` (repeat unit) [Poly(decano-10-lactam)], the glass transition temperature is 42.42 ± 0.8 °C.
Next, `*CC(CCl)O*` (repeat unit) [Poly(epichlorohydrin)]: -22.22 ± 1.5 °C; `*CC(*)(Cl)C(=O)OCC` (repeat unit) [Poly(ethyl a-chloroacrylate) ]: 92 ± 4.8 °C; `*CC(*)OCC` (repeat unit) [Poly(ethyl vinyl ether)]: -26.58 ± 9.8 °C.
As for `*CCOC(=O)CCC(=O)O*` (repeat unit) [Poly(ethylene succinate)], the glass transition temperature is -8.63 ± 3.5 °C.
Next, `*CC(*)CCCCCCC` (repeat unit) [Poly(heptylethylene)]: -47.58 ± 0.8 °C; `*CCCCCCNC(=O)CCCCC(=O)N*` (repeat unit) [Poly(hexamethylene adipamide)]: 54.53 ± 5.2 °C.
Next, `*CCCCCCNC(=O)CCCCCCCC(=O)N*` (repeat unit) [Poly(hexamethylene azelamide)]: 50.58 ± 12 °C; `*CCCCCCNC(=O)c1cccc(C(=O)N*)c1` (repeat unit) [Poly(hexamethylene isophthalamide) ]: 129 ± 5.4 °C.
